Test results: paper PMC4917279 (Journal of Medicinal Chemistry, 2016)

How the values were obtained:
Assay in all cases: KINOMEscan
Format in all cases: binding
Conditions in all cases: read-out: %Ctrl @ 1000 nM
AMPK-alpha1 = molecular target: T1, AMPK-alpha1 (Homo sapiens, UniProt Q13131)
T1 construct: purchased DiscoveRx KINOMEscan

ASK2 = molecular target: T2, ASK2 (Homo sapiens, UniProt O95382)
T2 construct: purchased DiscoveRx KINOMEscan

AURKA = molecular target: T3, AURKA (Homo sapiens, UniProt O14965)
T3 construct: purchased DiscoveRx KINOMEscan

BMPR2 = molecular target: T4, BMPR2 (Homo sapiens, UniProt Q13873)
T4 construct: purchased DiscoveRx KINOMEscan

CDK4-cyclinD3 = molecular target: T5, CDK4-cyclinD3 (Homo sapiens, UniProt P11802)
T5 construct: purchased DiscoveRx KINOMEscan

CDK9 = molecular target: T6, CDK9 (Homo sapiens, UniProt P50750)
T6 construct: purchased DiscoveRx KINOMEscan

CLK4 = molecular target: T7, CLK4 (Homo sapiens, UniProt Q9HAZ1)
T7 construct: purchased DiscoveRx KINOMEscan

DCAMKL3 = molecular target: T8, DCAMKL3 (Homo sapiens, UniProt Q9C098)
T8 construct: purchased DiscoveRx KINOMEscan

EPHA1 = molecular target: T9, EPHA1 (Homo sapiens, UniProt P21709)
T9 construct: purchased DiscoveRx KINOMEscan

EPHA5 = molecular target: T10, EPHA5 (Homo sapiens, UniProt P54756)
T10 construct: purchased DiscoveRx KINOMEscan

EPHA7 = molecular target: T11, EPHA7 (Homo sapiens, UniProt Q15375)
T11 construct: purchased DiscoveRx KINOMEscan

ERBB3 = molecular target: T12, ERBB3 (Homo sapiens, UniProt P21860)
T12 construct: purchased DiscoveRx KINOMEscan

FES = molecular target: T13, FES (Homo sapiens, UniProt P07332)
T13 construct: purchased DiscoveRx KINOMEscan

HASPIN = molecular target: T14, HASPIN (Homo sapiens, UniProt Q8TF76)
T14 construct: purchased DiscoveRx KINOMEscan

IKK-epsilon = molecular target: T15, IKK-epsilon (Homo sapiens, UniProt Q14164)
T15 construct: purchased DiscoveRx KINOMEscan

IRAK4 = molecular target: T16, IRAK4 (Homo sapiens, UniProt Q9NWZ3)
T16 construct: purchased DiscoveRx KINOMEscan

ITK = molecular target: T17, ITK (Homo sapiens, UniProt Q08881)
T17 construct: purchased DiscoveRx KINOMEscan

MARK1 = molecular target: T18, MARK1 (Homo sapiens, UniProt Q9P0L2)
T18 construct: purchased DiscoveRx KINOMEscan

MEK5 = molecular target: T19, MEK5 (Homo sapiens, UniProt Q13163)
T19 construct: purchased DiscoveRx KINOMEscan

MST1 = molecular target: T20, MST1 (Homo sapiens, UniProt Q13043)
T20 construct: purchased DiscoveRx KINOMEscan

NEK1 = molecular target: T21, NEK1 (Homo sapiens, UniProt Q96PY6)
T21 construct: purchased DiscoveRx KINOMEscan

PAK1 = molecular target: T22, PAK1 (Homo sapiens, UniProt Q13153)
T22 construct: purchased DiscoveRx KINOMEscan

PDGFRB = molecular target: T23, PDGFRB (Homo sapiens, UniProt P09619)
T23 construct: purchased DiscoveRx KINOMEscan

PFCDPK1(P.falciparum) = molecular target: T24, PFCDPK1(P.falciparum) (Plasmodium falciparum, UniProt P62344)
T24 construct: purchased DiscoveRx KINOMEscan

PIK3CA(E542K) = molecular target: T25, PIK3CA(E542K) (Homo sapiens, UniProt P42336, E542K)
T25 construct: purchased DiscoveRx KINOMEscan

PIK3CA(E545A) = molecular target: T26, PIK3CA(E545A) (Homo sapiens, UniProt P42336, E545A)
T26 construct: purchased DiscoveRx KINOMEscan

PLK1 = molecular target: T27, PLK1 (Homo sapiens, UniProt P53350)
T27 construct: purchased DiscoveRx KINOMEscan

PRKX = molecular target: T28, PRKX (Homo sapiens, UniProt P51817)
T28 construct: purchased DiscoveRx KINOMEscan

S6K1 = molecular target: T29, S6K1 (Homo sapiens, UniProt P23443)
T29 construct: purchased DiscoveRx KINOMEscan

SBK1 = molecular target: T30, SBK1 (Homo sapiens, UniProt Q52WX2)
T30 construct: purchased DiscoveRx KINOMEscan

SG110 = molecular target: T31, SG110 (Homo sapiens, UniProt P0C264)
T31 construct: purchased DiscoveRx KINOMEscan

STK39 = molecular target: T32, STK39 (Homo sapiens, UniProt Q9UEW8)
T32 construct: purchased DiscoveRx KINOMEscan

TAOK2 = molecular target: T33, TAOK2 (Homo sapiens, UniProt Q9UL54)
T33 construct: purchased DiscoveRx KINOMEscan

TLK1 = molecular target: T34, TLK1 (Homo sapiens, UniProt Q9UKI8)
T34 construct: purchased DiscoveRx KINOMEscan

TRKC = molecular target: T35, TRKC (Homo sapiens, UniProt Q16288)
T35 construct: purchased DiscoveRx KINOMEscan

ULK3 = molecular target: T36, ULK3 (Homo sapiens, UniProt Q6PHR2)
T36 construct: purchased DiscoveRx KINOMEscan

WNK1 = molecular target: T37, WNK1 (Homo sapiens, UniProt Q9H4A3)
T37 construct: purchased DiscoveRx KINOMEscan

YANK3 = molecular target: T38, YANK3 (Homo sapiens, UniProt Q86UX6)
T38 construct: purchased DiscoveRx KINOMEscan

YES = molecular target: T39, YES (Homo sapiens, UniProt P07947)
T39 construct: purchased DiscoveRx KINOMEscan

YSK1 = molecular target: T40, YSK1 (Homo sapiens, UniProt O00506)
T40 construct: purchased DiscoveRx
T40 sequence (O00506 whole entry): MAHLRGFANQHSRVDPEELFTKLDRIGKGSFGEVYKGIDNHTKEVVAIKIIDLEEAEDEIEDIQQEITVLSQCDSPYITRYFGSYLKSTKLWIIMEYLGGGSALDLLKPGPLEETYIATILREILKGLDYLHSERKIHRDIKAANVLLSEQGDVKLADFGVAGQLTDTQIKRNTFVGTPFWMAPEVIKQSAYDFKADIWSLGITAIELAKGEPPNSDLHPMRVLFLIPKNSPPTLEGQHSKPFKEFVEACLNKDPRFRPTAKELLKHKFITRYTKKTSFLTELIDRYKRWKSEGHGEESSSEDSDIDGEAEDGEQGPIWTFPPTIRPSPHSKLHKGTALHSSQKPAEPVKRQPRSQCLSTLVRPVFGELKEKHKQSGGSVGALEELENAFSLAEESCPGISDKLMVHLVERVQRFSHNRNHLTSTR

T17 sequence (Q08881 whole entry): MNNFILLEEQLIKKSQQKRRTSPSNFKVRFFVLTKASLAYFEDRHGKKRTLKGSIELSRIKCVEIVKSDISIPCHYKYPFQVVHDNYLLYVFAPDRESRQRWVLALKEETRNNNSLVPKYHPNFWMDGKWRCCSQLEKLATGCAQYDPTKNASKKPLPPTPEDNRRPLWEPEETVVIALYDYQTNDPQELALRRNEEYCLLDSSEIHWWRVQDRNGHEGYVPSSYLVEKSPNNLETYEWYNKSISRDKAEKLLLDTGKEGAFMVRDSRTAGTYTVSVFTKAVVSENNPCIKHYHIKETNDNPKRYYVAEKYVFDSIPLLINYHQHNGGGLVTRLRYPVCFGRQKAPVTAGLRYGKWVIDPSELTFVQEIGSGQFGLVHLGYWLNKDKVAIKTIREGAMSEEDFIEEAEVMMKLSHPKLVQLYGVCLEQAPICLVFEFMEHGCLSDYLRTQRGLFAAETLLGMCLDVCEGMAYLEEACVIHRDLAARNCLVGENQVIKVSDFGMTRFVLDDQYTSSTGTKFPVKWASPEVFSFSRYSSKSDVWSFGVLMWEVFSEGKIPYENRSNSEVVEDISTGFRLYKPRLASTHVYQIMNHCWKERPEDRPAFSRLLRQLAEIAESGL
T13 sequence (P07332 whole entry): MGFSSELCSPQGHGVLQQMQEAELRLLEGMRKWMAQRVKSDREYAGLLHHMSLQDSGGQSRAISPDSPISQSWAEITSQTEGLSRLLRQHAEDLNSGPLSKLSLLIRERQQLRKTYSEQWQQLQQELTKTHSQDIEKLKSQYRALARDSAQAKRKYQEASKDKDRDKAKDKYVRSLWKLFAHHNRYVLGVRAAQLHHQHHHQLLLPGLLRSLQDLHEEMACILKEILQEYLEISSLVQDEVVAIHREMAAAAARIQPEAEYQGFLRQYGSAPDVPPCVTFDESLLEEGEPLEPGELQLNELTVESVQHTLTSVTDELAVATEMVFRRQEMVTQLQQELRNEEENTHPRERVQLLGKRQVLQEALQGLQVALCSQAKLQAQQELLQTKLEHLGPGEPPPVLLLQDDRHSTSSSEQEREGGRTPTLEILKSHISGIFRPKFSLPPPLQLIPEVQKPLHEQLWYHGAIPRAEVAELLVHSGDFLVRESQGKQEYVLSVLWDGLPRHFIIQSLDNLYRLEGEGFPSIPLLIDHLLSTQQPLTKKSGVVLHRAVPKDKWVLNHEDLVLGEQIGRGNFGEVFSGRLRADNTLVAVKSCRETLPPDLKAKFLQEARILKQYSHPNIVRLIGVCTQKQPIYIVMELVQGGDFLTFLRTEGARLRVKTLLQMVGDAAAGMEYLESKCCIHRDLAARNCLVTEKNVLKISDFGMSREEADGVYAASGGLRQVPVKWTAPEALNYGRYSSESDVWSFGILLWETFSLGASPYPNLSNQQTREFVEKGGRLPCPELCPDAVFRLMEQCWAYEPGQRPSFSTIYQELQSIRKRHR
T28 sequence (P51817 whole entry): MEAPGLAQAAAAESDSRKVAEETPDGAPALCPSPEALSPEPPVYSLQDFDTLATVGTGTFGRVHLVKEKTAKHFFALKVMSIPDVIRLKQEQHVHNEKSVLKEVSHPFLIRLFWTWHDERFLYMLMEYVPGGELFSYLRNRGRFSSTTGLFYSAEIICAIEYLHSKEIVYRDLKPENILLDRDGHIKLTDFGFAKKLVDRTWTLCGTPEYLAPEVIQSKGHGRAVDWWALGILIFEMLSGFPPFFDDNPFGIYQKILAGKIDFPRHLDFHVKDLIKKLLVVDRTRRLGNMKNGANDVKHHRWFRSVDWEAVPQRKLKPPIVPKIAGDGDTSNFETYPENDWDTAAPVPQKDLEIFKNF
T37 sequence (Q9H4A3 whole entry): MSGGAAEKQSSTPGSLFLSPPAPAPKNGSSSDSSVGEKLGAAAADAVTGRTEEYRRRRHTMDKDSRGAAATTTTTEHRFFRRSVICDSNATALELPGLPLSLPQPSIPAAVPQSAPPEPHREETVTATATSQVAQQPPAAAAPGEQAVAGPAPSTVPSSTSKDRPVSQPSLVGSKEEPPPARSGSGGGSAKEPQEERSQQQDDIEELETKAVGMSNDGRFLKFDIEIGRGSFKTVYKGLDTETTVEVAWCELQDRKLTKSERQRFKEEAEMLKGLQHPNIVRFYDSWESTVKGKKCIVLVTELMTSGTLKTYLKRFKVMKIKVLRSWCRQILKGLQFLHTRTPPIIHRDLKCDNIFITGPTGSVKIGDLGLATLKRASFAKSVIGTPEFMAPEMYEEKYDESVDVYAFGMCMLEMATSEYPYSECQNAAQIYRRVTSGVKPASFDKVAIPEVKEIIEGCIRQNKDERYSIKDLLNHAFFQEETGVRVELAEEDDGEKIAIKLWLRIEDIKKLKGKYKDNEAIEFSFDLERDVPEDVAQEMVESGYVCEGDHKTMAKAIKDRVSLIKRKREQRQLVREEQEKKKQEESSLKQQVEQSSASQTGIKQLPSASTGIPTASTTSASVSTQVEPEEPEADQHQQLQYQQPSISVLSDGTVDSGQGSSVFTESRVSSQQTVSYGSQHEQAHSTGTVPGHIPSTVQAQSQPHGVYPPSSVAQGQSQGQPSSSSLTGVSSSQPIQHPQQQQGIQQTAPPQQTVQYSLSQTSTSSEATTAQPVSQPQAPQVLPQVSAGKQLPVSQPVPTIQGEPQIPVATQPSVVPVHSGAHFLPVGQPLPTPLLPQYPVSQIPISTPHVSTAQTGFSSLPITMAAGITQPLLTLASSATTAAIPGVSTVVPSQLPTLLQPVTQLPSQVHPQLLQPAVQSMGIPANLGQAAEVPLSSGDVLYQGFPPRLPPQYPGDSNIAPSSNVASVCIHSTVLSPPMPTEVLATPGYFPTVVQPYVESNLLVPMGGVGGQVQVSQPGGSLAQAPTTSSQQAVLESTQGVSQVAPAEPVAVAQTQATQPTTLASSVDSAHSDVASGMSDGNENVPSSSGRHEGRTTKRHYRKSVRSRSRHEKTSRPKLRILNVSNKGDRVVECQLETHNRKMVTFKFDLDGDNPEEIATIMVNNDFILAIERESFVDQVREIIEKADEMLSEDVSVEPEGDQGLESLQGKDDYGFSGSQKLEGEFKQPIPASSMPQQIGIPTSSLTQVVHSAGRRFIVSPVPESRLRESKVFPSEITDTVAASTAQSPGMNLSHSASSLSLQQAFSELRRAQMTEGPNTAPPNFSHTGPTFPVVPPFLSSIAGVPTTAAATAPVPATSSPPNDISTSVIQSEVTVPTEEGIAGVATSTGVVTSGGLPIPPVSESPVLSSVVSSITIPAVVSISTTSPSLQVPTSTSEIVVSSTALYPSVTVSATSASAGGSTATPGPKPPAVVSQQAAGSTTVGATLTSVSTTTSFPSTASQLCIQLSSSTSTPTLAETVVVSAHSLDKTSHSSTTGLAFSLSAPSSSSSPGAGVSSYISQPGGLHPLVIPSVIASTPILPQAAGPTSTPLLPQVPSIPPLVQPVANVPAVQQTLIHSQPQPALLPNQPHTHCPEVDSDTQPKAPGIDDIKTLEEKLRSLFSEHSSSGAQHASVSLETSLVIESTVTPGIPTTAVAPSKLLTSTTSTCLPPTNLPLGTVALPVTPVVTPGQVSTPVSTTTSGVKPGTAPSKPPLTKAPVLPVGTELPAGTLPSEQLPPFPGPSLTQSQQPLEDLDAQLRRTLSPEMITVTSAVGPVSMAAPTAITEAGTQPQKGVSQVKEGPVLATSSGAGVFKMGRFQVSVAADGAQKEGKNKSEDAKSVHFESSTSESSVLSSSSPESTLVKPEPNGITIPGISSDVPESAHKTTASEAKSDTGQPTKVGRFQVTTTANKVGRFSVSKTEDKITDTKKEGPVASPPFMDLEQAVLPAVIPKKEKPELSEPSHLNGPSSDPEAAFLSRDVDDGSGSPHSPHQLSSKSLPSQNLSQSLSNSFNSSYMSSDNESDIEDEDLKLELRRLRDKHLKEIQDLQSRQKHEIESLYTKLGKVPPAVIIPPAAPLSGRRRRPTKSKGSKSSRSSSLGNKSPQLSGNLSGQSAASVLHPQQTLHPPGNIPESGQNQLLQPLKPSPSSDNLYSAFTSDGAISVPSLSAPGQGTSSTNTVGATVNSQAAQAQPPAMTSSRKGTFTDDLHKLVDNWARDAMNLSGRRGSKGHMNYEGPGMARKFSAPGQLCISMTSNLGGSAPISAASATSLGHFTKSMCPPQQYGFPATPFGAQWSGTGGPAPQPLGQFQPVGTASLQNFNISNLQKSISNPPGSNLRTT
T19 sequence (Q13163 whole entry): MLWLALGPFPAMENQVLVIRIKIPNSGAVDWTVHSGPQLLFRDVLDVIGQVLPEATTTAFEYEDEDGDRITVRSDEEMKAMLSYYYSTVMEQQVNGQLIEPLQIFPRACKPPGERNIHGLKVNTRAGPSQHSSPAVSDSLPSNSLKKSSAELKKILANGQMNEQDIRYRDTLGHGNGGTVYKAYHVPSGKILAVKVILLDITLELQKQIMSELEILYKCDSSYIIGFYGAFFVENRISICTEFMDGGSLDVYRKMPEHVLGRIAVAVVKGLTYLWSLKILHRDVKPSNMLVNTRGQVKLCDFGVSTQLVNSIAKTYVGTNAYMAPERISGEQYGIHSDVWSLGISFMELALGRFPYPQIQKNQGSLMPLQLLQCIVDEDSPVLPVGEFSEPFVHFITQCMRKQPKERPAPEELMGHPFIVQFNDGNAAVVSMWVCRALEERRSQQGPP

## CCN(C(=O)CO)[C@H]1CN(/C(=N\C#N)Nc2cccc(OC(F)F)c2)N=C1c1ccc(Cl)c(Cl)c1 [(S)-4]
AMPK-alpha1
  remaining binding at 1 µM: 68%
ASK2
  remaining binding at 1 µM: 93%
AURKA
  remaining binding at 1 µM: 96%
BMPR2
  remaining binding at 1 µM: 100%
CDK4-cyclinD3
  remaining binding at 1 µM: 100%
CDK9
  remaining binding at 1 µM: 74%
CLK4
  remaining binding at 1 µM: 94%
DCAMKL3
  remaining binding at 1 µM: 75%
EPHA1
  remaining binding at 1 µM: 86%
EPHA5
  remaining binding at 1 µM: 100%
EPHA7
  remaining binding at 1 µM: 91%
ERBB3
  remaining binding at 1 µM: 84%
FES
  remaining binding at 1 µM: 92%
HASPIN
  remaining binding at 1 µM: 100%
IKK-epsilon
  remaining binding at 1 µM: 99%
IRAK4
  remaining binding at 1 µM: 100%
ITK
  remaining binding at 1 µM: 94%
MARK1
  remaining binding at 1 µM: 71%
MEK5
  remaining binding at 1 µM: 100%
MST1
  remaining binding at 1 µM: 68%
NEK1
  remaining binding at 1 µM: 93%
PAK1
  remaining binding at 1 µM: 84%
PDGFRB
  remaining binding at 1 µM: 100%
PFCDPK1(P.falciparum)
  remaining binding at 1 µM: 76%
PIK3CA(E542K)
  remaining binding at 1 µM: 92%
PIK3CA(E545A)
  remaining binding at 1 µM: 53%
PLK1
  remaining binding at 1 µM: 100%
PRKX
  remaining binding at 1 µM: 100%
S6K1
  remaining binding at 1 µM: 87%
SBK1
  remaining binding at 1 µM: 88%
SG110
  remaining binding at 1 µM: 92%
STK39
  remaining binding at 1 µM: 77%
TAOK2
  remaining binding at 1 µM: 91%
TLK1
  remaining binding at 1 µM: 100%
TRKC
  remaining binding at 1 µM: 55%
ULK3
  remaining binding at 1 µM: 74%
WNK1
  remaining binding at 1 µM: 100%
YANK3
  remaining binding at 1 µM: 100%
YES
  remaining binding at 1 µM: 100%
YSK1
  remaining binding at 1 µM: 90%
